Assay results published in patent EP0073997A1, “Substituted 2-amino-3,4-dihydro-pyridine derivatives, process for their preparation and their use in medicines” (BAYER AG, priority 1981, dated 1983).

Tested on: Wistar-Ratten
Experiment: Cholesterol load test: liver cholesterol after oral cholesterol load
Assay type: in vivo
Details: Dosis 10 mg/kg p.o.; given together with cholesterol in 0,75 % tragacanth suspension; liver cholesterol after 24 h
Method: Cholesterol- bzw. Fettbelastungstests wurden an nüchternen männlichen oder weiblichen Wistar-Ratten mit einem Körpergewicht zwischen 130-230 g durchgeführt.
Cholesterol-Belastung: • Cholesterol und die zu prüfende Substanz wurden in 0,75 %iger Traganth-Suspension gleichzeitig oral appliziert. Nach 24 h wurden die Tiere getötet und der Cholesterolgehalt in der Leber bestimmt. Cholesterol wurde nach der Liebermann-Burchard-Methode mit der Testkombination von Boehringer Mannheim bestimmt. Kontrolltiere erhielten ein entsprechendes Volumen Cholesterol-Traganth-Suspension ohne Testsubstanz. Zur Kontrolle des Cholesterol-Anstiegs als Folge der Cholesterol-Belastung wurde einer weiteren Kontrollgruppe Traganth-Suspension ohne Cholesterol oral appliziert.

Molecule | Verminderung des Lebercholesterinanstiegs im Vergleich zur Kontrolle nach oraler Cholesterinbelastung in Prozent
CC1=C(c2ccccc2)C(c2cccc(CN3CCCC3)c2)CC(N2CCN(c3ccccc3)CC2)=N1 (stereo not drawn) [Beispiel 17, 6-Methyl-5-phenyl-2-(4-phenylpiperazino)-4-(3-pyrro-lidinomethylphenyl)-3,4-dihydropyridin] | 22,9%
CC1=C(c2ccc(N(C)C)cc2)C(c2ccc(Cl)cc2)C(CC(=O)OC(C)(C)C)C(N2CCN(c3ccccc3)CC2)=N1 (stereo not drawn) [Beispiel 29] | 12,0%
CC1=C(c2ccccc2)C(c2ccccc2)C(CO)C(N2CCN(c3ccccc3)CC2)=N1 (stereo not drawn) [Beispiel 34] | 23,9%
CC(=O)OCc1ccc(C2=C(C)N=C(N3CCN(c4ccccc4)CC3)CC2c2ccc(COC(C)=O)cc2)cc1 (stereo not drawn) [Beispiel 9] | 17,7%
Clc1ccc(C2=CC(c3ccc(Cl)cc3)CC(N3CCN(c4ccccc4)CC3)=N2)cc1 (stereo not drawn) [Beispiel 8] | 21,3%
Clc1ccc(C2CC(N3CCN(c4ccccc4)CC3)=NC3=C2c2ccccc2CC3)cc1 (stereo not drawn) [Beispiel 1, 4-(4-Chlorphenyl)-2-(4-phenylpiperazino)-3,4,5,6-tetrahydronaphthalino(a)pyridin] | 51,7%
COc1ccc(C2=C(C)N=C(N3CCCC3)C(C)C2c2ccc(OC)cc2)cc1 (stereo not drawn) [Beispiel 25] | 22,6%
CC1=C(c2ccc(N(C)C)cc2)C(c2ccc(CO)cc2)CC(N2CCN(c3ccccc3)CC2)=N1 (stereo not drawn) [Beispiel 16] | 36,7%
6-Methyl-2-(4-phenylpiperazino)-4,5-bis(2-pyrrolidinomethylphenyl)-3,4-dihydropyridin [Beispiel 18] | 34,1%
CC1=C(c2cccc(CO)c2)C(c2cccc(CO)c2)CC(N2CCN(c3ccccc3)CC2)=N1 (stereo not drawn) [Beispiel 13] | 37,9%
CC1=C(c2ccccc2)C(c2cccc(COC(=O)CCCC(=O)O)c2)CC(N2CCN(c3ccccc3)CC2)=N1 (stereo not drawn) [Beispiel 19, 4-(3-(5-Carboxybutyryloxymethyl)-phenyl)-6-methyl-5-phenyl-2-(4-phenylpiperazino)-3,4-dihydropyridin] | 36,3%
C=CCC1C(N2CCN(c3ccccc3)CC2)=NC(C)=C(c2ccccc2)C1c1ccccc1 (stereo not drawn) [Beispiel 21] | 34,9%
